Results on 18 compounds are retold here after patent publication US20230339866A1, “Quinazoline compounds and the use thereof in the treatment of cancer” (TROBIO THERAPEUTICS PTY LTD, priority 2020, published 2023).

Holding throughout (format): cell-based
The test system of experiment [1] is A549 (NSCLC). In words: Anti-proliferative activity (Cell-Titre luminescence) against A549 non-small cell lung cancer cells. The note with it: 72 h exposure, Cell-Titre luminescent reagent. In outline: (§1)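 Cells grown 24 h at 37 °C, 5% CO2, then exposed 72 h to compound at 30, 10, 3, 1, 0.3 and 0.1 μM. Viability by Cell-Titre luminescence (30 min), normalised to vehicle; EC50 from variable-slope sigmoidal nonlinear regression.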

Experiment [2] concerns A2780 (ovarian). In words: Anti-proliferative activity (Cell-Titre luminescence) against A2780 ovarian cancer cells. The note with it: 72 h exposure, Cell-Titre luminescent reagent. In outline: as §1
For experiment [3], the system named is SK-N-SH neuroblastoma cells. Nature of the experiment: Anti-proliferative activity (MTS assay) against SK-N-SH neuroblastoma cells. The procedure: The ability of compounds of the disclosure to inhibit the proliferation of SK-N-SH neuroblastoma cells was also assessed. […] Cell viability was normalised to control (vehicle alone) and dose response curves and IC50 values (Table 4) were determined using Graph Pad Prism 6.
(In general: Tetrazolium assays rely on reduction of a dye to a coloured formazan, in cell work by metabolically active cells.)

One may read the IC50 as the concentration that gives 50% inhibition. Read a high IC50 as weaker potency. On to `COc1ccc(Nc2nc(NCCc3c[nH]cn3)c3ccccc3n2)cc1` [Compound 80, N^4-(2-(1H-imidazol-4-yl)ethyl)-N^2-(4-methoxyphenyl)quinazoline-2,4-diamine], for which the IC50 in experiment [1] (Homo sapiens, A549, 72 h) is 4 µM; in experiment [2] (Homo sapiens, A2780, 72 h) it was 3.33 µM; in experiment [3] (Homo sapiens, SK-N-SH, 72 h), 2.87 µM.
As for “N^4-(2-(dimethylamino)ethyl)-N^2-(3-(trifluoromethyl)phenethyl)quinazoline-2,4-diamine [Compound 64]”, the results for the IC50 in experiment [1], in experiment [2] and in experiment [3] (72 hours) were 2.87 µM, 2.38 µM and 1.45 µM, respectively.
Consider `CN(C)CCNc1nc(Nc2cccc(C(F)(F)F)c2)nc2ccccc12` [Compound 60, N^4-(2-(dimethylamino)ethyl)-N^2-(3-(trifluoromethyl)phenyl)quinazoline-2,4-diamine], for which the IC50 is 2.74 µM in experiment [1] (Homo sapiens, A549, 72 h); 2.21 µM in experiment [2] (Homo sapiens, A2780, 72 h); 2.61 µM in experiment [3] (Homo sapiens, SK-N-SH, 72 h).
Consider `CCc1ccc(CCNc2nc(NCCCO)c3ccccc3n2)cc1` [Compound 93, 3-((2-((4-ethylphenethyl)amino)quinazolin-4-yl)amino)propan-1-ol], for which the IC50 was 10.1 µM in experiment [1] (Homo sapiens, A549, 72 h); 2.65 µM in experiment [2] (Homo sapiens, A2780, 72 h); 4.43 µM in experiment [3] (Homo sapiens, SK-N-SH, 72 h).
On to `Fc1ccc(CCNc2nc(NCCc3c[nH]cn3)c3ccccc3n2)cc1` [Compound 88, N^4-(2-(1H-imidazol-4-yl)ethyl)-N^2-(4-fluorophenethyl)quinazoline-2,4-diamine], for which the IC50 in experiment [1] (Homo sapiens, A549, 72 h) stood at 3.42 µM; in experiment [2] (Homo sapiens, A2780, 72 h) it was 1.74 µM; in experiment [3] (Homo sapiens, SK-N-SH, 72 h), 2.2 µM.
For `CN(C)CCCNc1nc(Nc2cccc(C(F)(F)F)c2)nc2ccccc12` [Compound 69, N^4-(3-(dimethylamino)propyl)-N^2-(3-(trifluoromethyl)phenyl)quinazoline-2,4-diamine], in that order: 2.74 µM, 0.797 µM and 2.39 µM.
Consider `Fc1cccc(Nc2nc(NCCc3c[nH]cn3)c3ccccc3n2)c1` [Compound 83, N^4-(2-(1H-imidazol-4-yl)ethyl)-N^2-(3-fluorophenyl)quinazoline-2,4-diamine], for which the values for the IC50 in experiment [1], in experiment [2] and in experiment [3] (72 hours) were 9.16 µM, 2.2 µM and 3.88 µM, respectively.
Consider `CCc1ccc(CCNc2nc(NCCc3c[nH]cn3)c3ccccc3n2)cc1` [Compound 86, N^4-(2-(1H-imidazol-4-yl)ethyl)-N^2-(4-ethylphenethyl)quinazoline-2,4-diamine], for which the IC50 in experiment [1] (Homo sapiens, A549, 72 h) came to 3.23 µM; in experiment [2] (Homo sapiens, A2780, 72 h), 1.07 µM; in experiment [3] (Homo sapiens, SK-N-SH, 72 h), 2.17 µM.
Regarding `CCc1ccc(Nc2nc(NCCCN(C)C)c3ccccc3n2)cc1` [Compound 71, N^4-(3-(dimethylamino)propyl)-N^2-(4-ethylphenyl)quinazoline-2,4-diamine], the IC50 in experiment [1] (Homo sapiens, A549, 72 h) stood at 7.14 µM; in experiment [2] (Homo sapiens, A2780, 72 h), 2.88 µM; in experiment [3] (Homo sapiens, SK-N-SH, 72 h), 2.07 µM.
For `CN(C)CCCNc1nc(NCCc2ccc(F)cc2)nc2ccccc12` [Compound 78, N^4-(3-(dimethylamino)propyl)-N^2-(4-fluorophenethyl)quinazoline-2,4-diamine], in that order: 2.33 µM, 2.95 µM and 1.86 µM.
For `FC(F)(F)c1cccc(CCNc2nc(NCCN3CCNCC3)c3ccccc3n2)c1` [Compound 112, N^4-(2-(piperazin-1-yl)ethyl)-N^2-(3-(trifluoromethyl)phenethyl)quinazoline-2,4-diamine], in that order: 0.938 µM, 0.767 µM and 0.46 µM.
Take `OCCCNc1nc(NCCc2ccc(F)cc2)nc2ccccc12` [Compound 95, 3-((2-((4-fluorophenethyl)amino)quinazolin-4-yl)amino)propan-1-ol]: the IC50 in experiment [1] (Homo sapiens, A549, 72 h) came out at 1.76 µM; in experiment [2] (Homo sapiens, A2780, 72 h), 2.78 µM; in experiment [3] (Homo sapiens, SK-N-SH, 72 h) it was 2.62 µM.
The matching figures for `CN(C)CCNc1nc(-c2ccsc2)nc2ccccc12` [Compound 96, N^1,N^1-dimethyl-N^2-(2-(thiophen-3-yl)quinazolin-4-yl)ethane-1,2-diamine]: 6.7 µM, 5.52 µM and 8.77 µM.
For `Cc1cccc(CCNc2nc(NCCN3CCN(C)CC3)c3ccccc3n2)c1` [Compound 124, N^2-(3-methylphenethyl)-N^4-(2-(4-methylpiperazin-1-yl)ethyl)quinazoline-2,4-diamine], in that order: 2.25 µM, 2.74 µM and 0.68 µM.
As to `CC(C)c1ccc(CCNc2nc(NCCN3CCN(C)CC3)c3ccccc3n2)cc1` [Compound 128, N^2-(4-isopropylphenethyl)-N^4-(2-(4-methylpiperazin-1-yl)ethyl)quinazoline-2,4-diamine], the half-inhibitory concentration (IC50) in experiment [1] (Homo sapiens, A549, 72 h) amounted to 0.943 µM; in experiment [2] (Homo sapiens, A2780, 72 h), 0.606 µM; in experiment [3] (Homo sapiens, SK-N-SH, 72 h), 0.57 µM.
For `CN1CCN(CCNc2nc(Nc3cccc(C(F)(F)F)c3)nc3ccccc23)CC1` [Compound 41, N^4-(2-(4-methylpiperazin-1-yl)ethyl)-N^2-(3-(trifluoromethyl)phenyl)quinazoline-2,4-diamine], in that order: 3.06 µM, 0.855 µM and 2.22 µM.
Turning to `CN(C)CCCNc1nc(NCCc2cccc(C(F)(F)F)c2)nc2ccccc12` [Compound 74, N^4-(3-(dimethylamino)propyl)-N^2-(3-(trifluoromethyl)phenethyl)quinazoline-2,4-diamine], the IC50 is 1.7 µM in experiment [1] (Homo sapiens, A549, 72 h); 1.16 µM in experiment [2] (Homo sapiens, A2780, 72 h); 1.24 µM in experiment [3] (Homo sapiens, SK-N-SH, 72 h).
The matching figures for `COc1ccc(CCNc2nc(NCCc3c[nH]cn3)c3ccccc3n2)cc1` [Compound 85, N^4-(2-(1H-imidazol-4-yl)ethyl)-N^2-(4-methoxyphenethyl)quinazoline-2,4-diamine]: 6.81 µM, 1.74 µM and 4.28 µM.
